Results taken from PubChem BioAssay (NCI).
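How tested: cells in 96-well plates exposed to compound for 48 hours at five concentrations. GI50 marks 50% less growth. TGI denotes the concentration required for complete inhibition of growth.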

Columns and labels:
Test in all cases: DTP human tumour cell line panel, 48 h
COLO 205 colon = test system: COLO 205 colon
UACC-257 melanoma = test system: UACC-257 melanoma
CAKI-1 renal = test system: CAKI-1 renal
SNB-75 CNS = test system: SNB-75 CNS
TK-10 renal = test system: TK-10 renal
UO-31 renal = test system: UO-31 renal
NCI-H23 lung = test system: NCI-H23 lung
RXF 393 renal = test system: RXF 393 renal
HCT-116 colon = test system: HCT-116 colon
MCF7 breast = test system: MCF7 breast

COC(=O)C1Cc2c([nH]c3ccccc23)C=N1 (stereo unspecified)
TGI (COLO 205 colon): > 100 µM | TGI (UACC-257 melanoma): > 100 µM | TGI (CAKI-1 renal): > 100 µM | TGI (SNB-75 CNS): > 100 µM | TGI (TK-10 renal): > 100 µM | TGI (UO-31 renal): > 100 µM | TGI (NCI-H23 lung): > 100 µM | TGI (RXF 393 renal): > 100 µM | TGI (HCT-116 colon): > 100 µM

CC1=C(C)C(=O)C(C(C)C2=C(C)C(=O)C(C)=C(C)C2=O)=C(C)C1=O
GI50 (COLO 205 colon): 32.6 µM | TGI (COLO 205 colon): > 100 µM | GI50 (UACC-257 melanoma): 33.5 µM | TGI (UACC-257 melanoma): > 100 µM | GI50 (CAKI-1 renal): 28.6 µM | TGI (CAKI-1 renal): > 100 µM | GI50 (TK-10 renal): 90.6 µM | TGI (TK-10 renal): > 100 µM | GI50 (UO-31 renal): 27.6 µM | TGI (UO-31 renal): 85.5 µM | GI50 (MCF7 breast): 29 µM | TGI (MCF7 breast): > 100 µM | GI50 (NCI-H23 lung): 21.6 µM | TGI (NCI-H23 lung): > 100 µM | GI50 (RXF 393 renal): 31.7 µM | TGI (RXF 393 renal): 82.7 µM | GI50 (HCT-116 colon): 10.8 µM | TGI (HCT-116 colon): 24.8 µM

Cc1cc(Cl)ccc1NC(=O)C1C(=O)N(c2ccc(Cl)cc2C)C(=O)/C1=N\N (stereo unspecified)
TGI (COLO 205 colon): > 100 µM | TGI (UACC-257 melanoma): > 100 µM | TGI (CAKI-1 renal): > 100 µM | TGI (SNB-75 CNS): > 100 µM | TGI (TK-10 renal): 99.3 µM | TGI (UO-31 renal): > 100 µM | TGI (NCI-H23 lung): > 100 µM | TGI (RXF 393 renal): > 100 µM | TGI (HCT-116 colon): > 100 µM

O=C(/C=C/c1ccccc1F)C(c1ccccc1)c1ccccc1
TGI (UACC-257 melanoma): 17.7 µM | TGI (CAKI-1 renal): 17.8 µM | TGI (SNB-75 CNS): 19.2 µM | TGI (TK-10 renal): 14.6 µM | TGI (UO-31 renal): 25.2 µM | TGI (HCT-116 colon): 6.4 µM

N#CC(C#N)=C1NC(=O)C(c2ccccc2)C(=O)N1 (stereo unspecified)
TGI (COLO 205 colon): > 100 µM | TGI (UACC-257 melanoma): > 100 µM | TGI (CAKI-1 renal): > 100 µM | TGI (SNB-75 CNS): > 100 µM | TGI (TK-10 renal): > 100 µM | TGI (UO-31 renal): > 100 µM | TGI (NCI-H23 lung): > 100 µM | TGI (RXF 393 renal): > 100 µM | TGI (HCT-116 colon): > 100 µM

COc1nc2c(nc(N)n2C2OC(CO)C(O)C(O)C2O)c(=O)n1C (stereo unspecified)
TGI (COLO 205 colon): > 100 µM | TGI (UACC-257 melanoma): > 100 µM | TGI (CAKI-1 renal): > 100 µM | TGI (SNB-75 CNS): > 100 µM | TGI (TK-10 renal): > 100 µM | TGI (UO-31 renal): > 100 µM | TGI (NCI-H23 lung): > 100 µM | TGI (RXF 393 renal): > 100 µM | TGI (HCT-116 colon): > 100 µM

NS(=O)(=O)c1ccc(-n2nc(-c3ccc(Cl)cc3)cc2C2=CC(=O)C=CC2=O)cc1
GI50 (UACC-257 melanoma): 19.9 µM | TGI (UACC-257 melanoma): 42.9 µM | GI50 (CAKI-1 renal): 25.2 µM | TGI (CAKI-1 renal): 48.5 µM | GI50 (TK-10 renal): 12.5 µM | TGI (TK-10 renal): 28.3 µM | GI50 (UO-31 renal): 41.7 µM | TGI (UO-31 renal): > 100 µM | GI50 (MCF7 breast): 21.1 µM | TGI (MCF7 breast): 69.9 µM | GI50 (NCI-H23 lung): 18 µM | TGI (NCI-H23 lung): 42.1 µM | GI50 (RXF 393 renal): 21.9 µM | TGI (RXF 393 renal): 46.7 µM

CCCCCCCCCCCCC(Br)C(=O)SCCNC(=O)CCNC(=O)[C@@H](O)C(C)(C)COP(=O)(O)OP(=O)(O)OCC1OC(n2cnc3c(N)ncnc32)C(O)C1OP(=O)(O)O (stereo partly specified)
TGI (COLO 205 colon): > 56.5 µM | TGI (UACC-257 melanoma): 40.4 µM | TGI (SNB-75 CNS): > 56.5 µM | TGI (TK-10 renal): > 56.5 µM | TGI (UO-31 renal): > 56.5 µM | TGI (NCI-H23 lung): > 56.5 µM | TGI (RXF 393 renal): > 56.5 µM | TGI (HCT-116 colon): > 56.5 µM

CNCCNc1nc2ccccc2c2c(=O)c3cccc(OC)c3sc12
GI50 (COLO 205 colon): 1.11 µM | TGI (COLO 205 colon): 2.68 µM | GI50 (UACC-257 melanoma): 1.78 µM | TGI (UACC-257 melanoma): 3.67 µM | GI50 (CAKI-1 renal): 1.32 µM | TGI (CAKI-1 renal): 2.71 µM | GI50 (SNB-75 CNS): 1.1 µM | TGI (SNB-75 CNS): 2.33 µM | GI50 (UO-31 renal): 0.38 µM | TGI (UO-31 renal): 2.08 µM | GI50 (MCF7 breast): 1.17 µM | TGI (MCF7 breast): 2.59 µM | GI50 (NCI-H23 lung): 1.48 µM | TGI (NCI-H23 lung): 3 µM | GI50 (RXF 393 renal): 1.38 µM | TGI (RXF 393 renal): 2.75 µM | GI50 (HCT-116 colon): 0.547 µM | TGI (HCT-116 colon): 1.86 µM

COC(=O)/C(C#N)=C1\N=NNN1CCCc1ccccc1
TGI (COLO 205 colon): > 100 µM | TGI (UACC-257 melanoma): > 100 µM | TGI (CAKI-1 renal): > 100 µM | TGI (SNB-75 CNS): > 100 µM | TGI (TK-10 renal): > 100 µM | TGI (UO-31 renal): > 100 µM | TGI (NCI-H23 lung): > 100 µM | TGI (RXF 393 renal): > 100 µM | TGI (HCT-116 colon): > 100 µM

CC(CN(CP(=O)([O-])[O-])CP(=O)([O-])[O-])N(CP(=O)([O-])[O-])CP(=O)([O-])[O-].N[C@@H]1CCCC[C@@H]1N.[Pt+2] (stereo unspecified)
GI50 (COLO 205 colon): > 100 µM | TGI (COLO 205 colon): > 100 µM | GI50 (UACC-257 melanoma): > 100 µM | TGI (UACC-257 melanoma): > 100 µM | GI50 (CAKI-1 renal): > 100 µM | TGI (CAKI-1 renal): > 100 µM | GI50 (SNB-75 CNS): > 100 µM | TGI (SNB-75 CNS): > 100 µM | GI50 (TK-10 renal): > 100 µM | TGI (TK-10 renal): > 100 µM | GI50 (UO-31 renal): > 100 µM | TGI (UO-31 renal): > 100 µM | GI50 (NCI-H23 lung): > 100 µM | TGI (NCI-H23 lung): > 100 µM | GI50 (RXF 393 renal): > 100 µM | TGI (RXF 393 renal): > 100 µM | GI50 (HCT-116 colon): > 100 µM | TGI (HCT-116 colon): > 100 µM

COc1ccc(/C=C(/C(=O)N2CCNCC2)c2cc(OC)c(OC)c(OC)c2)cc1O
GI50 (COLO 205 colon): 3.24 µM | TGI (COLO 205 colon): 14 µM | GI50 (UACC-257 melanoma): 33.7 µM | TGI (UACC-257 melanoma): > 100 µM | GI50 (CAKI-1 renal): > 100 µM | TGI (CAKI-1 renal): > 100 µM | GI50 (TK-10 renal): 79.4 µM | TGI (TK-10 renal): > 100 µM | GI50 (UO-31 renal): 55.5 µM | TGI (UO-31 renal): > 100 µM | GI50 (MCF7 breast): 1.34 µM | TGI (MCF7 breast): > 100 µM | GI50 (NCI-H23 lung): 5.16 µM | TGI (NCI-H23 lung): > 100 µM | GI50 (RXF 393 renal): 2.95 µM | TGI (RXF 393 renal): > 100 µM | GI50 (HCT-116 colon): 3.45 µM | TGI (HCT-116 colon): > 100 µM

O=C1c2cc3c(cc2-c2c1c1ccc([N+](=O)[O-])cc1c(=O)n2CCCCl)OCO3
GI50 (COLO 205 colon): 0.567 µM | TGI (COLO 205 colon): > 100 µM | GI50 (CAKI-1 renal): 0.0268 µM | TGI (CAKI-1 renal): 76.6 µM | GI50 (SNB-75 CNS): 3.35 µM | TGI (SNB-75 CNS): > 100 µM | GI50 (TK-10 renal): > 54.3 µM | TGI (TK-10 renal): > 100 µM | GI50 (UO-31 renal): 0.307 µM | TGI (UO-31 renal): > 100 µM | GI50 (MCF7 breast): 0.333 µM | GI50 (NCI-H23 lung): 0.285 µM | GI50 (HCT-116 colon): 6.38 µM | TGI (HCT-116 colon): > 100 µM

Cc1cc2c(=O)cc(-c3ccc(Cl)cc3)oc2c(C(=O)O)c1C
TGI (COLO 205 colon): > 100 µM | TGI (UACC-257 melanoma): > 100 µM | TGI (CAKI-1 renal): > 100 µM | TGI (SNB-75 CNS): > 100 µM | TGI (TK-10 renal): > 100 µM | TGI (UO-31 renal): > 100 µM | TGI (NCI-H23 lung): > 100 µM | TGI (RXF 393 renal): > 100 µM | TGI (HCT-116 colon): > 100 µM

C/C=C/C1(NS(=O)(=O)c2ccc(C)cc2)CCC(C(C)(C)C)CC1 (stereo unspecified)
TGI (COLO 205 colon): 42.3 µM | TGI (UACC-257 melanoma): 56 µM | TGI (CAKI-1 renal): 98.1 µM | TGI (SNB-75 CNS): > 100 µM | TGI (TK-10 renal): 94.6 µM | TGI (UO-31 renal): 62.3 µM | TGI (NCI-H23 lung): 51.7 µM | TGI (RXF 393 renal): 42.3 µM | TGI (HCT-116 colon): 36 µM

O=C1c2cccc3cccc(c23)C(=O)N1CCCCOc1ccc(-c2nc3ccc(N4CCOCC4)cc3[nH]2)cc1
GI50 (COLO 205 colon): 3.78 µM | TGI (COLO 205 colon): 13.7 µM | GI50 (UACC-257 melanoma): 5.06 µM | TGI (UACC-257 melanoma): 27.9 µM | GI50 (CAKI-1 renal): 11.6 µM | TGI (CAKI-1 renal): 27 µM | GI50 (TK-10 renal): 3.57 µM | TGI (TK-10 renal): 13.4 µM | GI50 (UO-31 renal): 10.8 µM | TGI (UO-31 renal): > 35.2 µM | GI50 (MCF7 breast): 2.92 µM | TGI (MCF7 breast): 12.8 µM | GI50 (NCI-H23 lung): 6.7 µM | TGI (NCI-H23 lung): 23.5 µM | GI50 (RXF 393 renal): 0.547 µM | TGI (RXF 393 renal): 3 µM | GI50 (HCT-116 colon): 1.76 µM | TGI (HCT-116 colon): 3.32 µM

CCOc1ccc(NC(=O)C2=C(C)NC(C)=C(C(=O)Nc3ccc(OCC)cc3)C2c2ccc([N+](=O)[O-])cc2)cc1
TGI (COLO 205 colon): 53.3 µM | TGI (UACC-257 melanoma): > 100 µM | TGI (CAKI-1 renal): > 100 µM | TGI (SNB-75 CNS): > 100 µM | TGI (TK-10 renal): > 100 µM | TGI (UO-31 renal): > 100 µM | TGI (NCI-H23 lung): > 100 µM | TGI (RXF 393 renal): > 100 µM

C[Si](C)(C)/C(Br)=C\CCN1C(=O)CCC1O (stereo unspecified)
TGI (COLO 205 colon): > 100 µM | TGI (UACC-257 melanoma): > 100 µM | TGI (SNB-75 CNS): > 100 µM | TGI (TK-10 renal): > 100 µM | TGI (UO-31 renal): > 100 µM | TGI (NCI-H23 lung): > 100 µM | TGI (RXF 393 renal): > 100 µM | TGI (HCT-116 colon): > 100 µM
